According to patent US10570179B2, “Substituted urea depsipeptide analogs as activators of the CLPP endopeptidase” (priority 2016, dated 2020):
Numbered stars: 1 amine (or outer) side, 2 acyl side, 3 side chain; on linkers, the order of the positions; unused ones are H or OH. Bridge positions count the residues as written; N and C are the ends. Square brackets hold non-standard residues; d marks the D form. Peptide text beside a SMILES is read from it. * marks the point of attachment. Phe(3-CF3) = N[C@@H](Cc1cccc(C(F)(F)F)c1)C(=O)O; Piperazine(2S-CO,4-Me) = CN1CCN[C@H](C(=O)O)C1; Phe(3-Me) = Cc1cccc(C[C@H](N)C(=O)O)c1; NH(4-Cl-2-F-phenyl) = Fc1cc(Cl)ccc1N*; Pro(4R-Me) = C[C@H]1CN[C@H](C(=O)O)C1; Hyp = O=C(O)[C@@H]1C[C@@H](O)CN1; NH(4-Me-phenyl) = Cc1ccc(N*)cc1; aThr = C[C@H](O)[C@H](N)C(=O)O; Pip = O=C(O)[C@@H]1CCCCN1; X3 = c1cc2c(cc1N*)OCCO2; CO = O=C([*:1])[*:2]

How the values were obtained:
[1] = molecular target: T1, S. aureus ClpP (Sa-ClpP) (Staphylococcus aureus, UniProt Q2G036); test: Casein-BODIPY digestion assay (ClpP activation); assay type: biochemical
T1 construct: made in house; host or cells: E. coli BL21 (DE3)

[2] = Plasma protein binding, rapid equilibrium dialysis; assay type: in vitro ADME, mouse
[3] = Plasma stability assay; assay type: in vitro ADME, human
Method in brief: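 Compounds at 10 μM final in human or mouse plasma, incubated at 37 °C and sampled at 0, 3, 24 and 48 h in triplicate. Reactions quenched with cold acetonitrile containing warfarin internal standard; parent measured by LC-MS. Half-life from least-squares first-order fit.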

[4] = plasma binding, % Bound, mouse plasma
[5] = plasma stability half-life, human plasma, 37° C.

T1 sequence (Q2G036 whole entry): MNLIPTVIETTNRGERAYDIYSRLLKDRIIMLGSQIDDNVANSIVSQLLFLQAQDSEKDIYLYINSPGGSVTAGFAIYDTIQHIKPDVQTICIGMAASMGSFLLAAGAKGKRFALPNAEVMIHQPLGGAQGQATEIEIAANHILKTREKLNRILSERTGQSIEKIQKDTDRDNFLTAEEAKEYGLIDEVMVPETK

| Structure (SMILES) | EC50 [1] [nM] | Mouse ([2]; mouse, 4 h, 10 μM, pH 7.4) [%] | Human ([3]; human, 10 μM) [h] | Human (hr) ([3]; human, 10 μM) | Mouse [2, 4] [%] | Human [3, 5] [h] |
| --- | --- | --- | --- | --- | --- | --- |
| Cc1cccc(C[C@H](NC(=O)Nc2ccc3c(c2)OCCO3)C(=O)N[C@@H]2C(=O)N3C[C@H](O)C[C@H]3C(=O)N3CCCC[C@H]3C(=O)N[C@@H](C)C(=O)N3C[C@H](C)C[C@H]3C(=O)O[C@H]2C)c1 [Compound 28, (S)-2-(3-(2,3-DIHYDROBENZO[B][1,4]DIOXIN-6-YL)UREIDO)-N-((2R,6S,8AS,14AS,16R,20S,21S,23AS)-16-HYDROXY-2,6,21-TRIMETHYL-5,8,14,19,23-PENTAOXOOCTADECAHYDRO-1H,5H,14H,19H-PYRIDO[2,1-I]DIPYRROLO[2,1-C:2′,1′-L][1]OXA[4,7,10,13]TETRAAZACYCLOHEXADECIN-20-YL)-3-(M-TOLYL)PROPANAMIDE] ({X3-CO}-[Phe(3-Me)][aThr][Hyp][Pip]A[Pro(4R-Me)]; ester 2-C) | 910 ± 80 | 98.1 ± 8.1 | >50 |  |  |  |
| Cc1cccc(C[C@H](NC(=O)Nc2ccc3c(c2)OCO3)C(=O)N[C@H]2COC(=O)[C@@H]3C[C@@H](C)CN3C(=O)[C@H](C)NC(=O)[C@@H]3CCCCN3C(=O)[C@@H]3CCCN3C2=O)c1 [Compound 23, (S)-2-(3-(BENZO[D][1,3]DIOXOL-5-YL)UREIDO)-N-((2R,6S,8AS,14AS,20S,23AS)-2,6-DIMETHYL-5,8,14,19,23-PENTAOXOOCTADECAHYDRO-1H,5H,14H,19H-PYRIDO[2,1-I]DIPYRROLO[2,1-C:2′,1′-L][1]OXA[4,7,10,13]TETRAAZACYCLOHEXADECIN-20-YL)-3-(M-TOLYL)PROPANAMIDE] | 350 ± 90 | 96.9 ± 0.1 | >50 |  |  |  |
| Cc1cccc(C[C@H](NC(=O)Nc2ccc(Cl)cc2F)C(=O)N[C@@H]2C(=O)N3CCC[C@H]3C(=O)N3CCCC[C@H]3C(=O)N[C@@H](C)C(=O)N3C[C@H](C)C[C@H]3C(=O)O[C@H]2C)c1 [Compound 3, (S)-2-(3-(4-CHLORO-2-FLUOROPHENYL)UREIDO)-3-(M-TOLYL)-N-((2R,6S,8AS,14AS,20S,21S,23AS)-2,6,21-TRIMETHYL-5,8,14,19,23-PENTAOXOOCTADECAHYDRO-1H,5H,14H,19H-PYRIDO[2,1-I]DIPYRROLO[2,1-C:2′,1′-L][1]OXA[4,7,10,13]TETRAAZACYCLOHEXADECIN-20-YL)PROPANAMIDE] ({NH(4-Cl-2-F-phenyl)-CO}-[Phe(3-Me)][aThr]P[Pip]A[Pro(4R-Me)]; ester 2-C) | 390 ± 20 | 99.3 ± 0.1 |  | >>48 hr |  |  |
| Cc1ccc(NC(=O)N[C@@H](Cc2cccc(C)c2)C(=O)N[C@H]2COC(=O)[C@@H]3C[C@@H](C)CN3C(=O)[C@H](C)NC(=O)[C@@H]3CN(C)CCN3C(=O)[C@@H]3CCCN3C2=O)cc1 [Compound 15, (S)-3-(M-TOLYL)-2-(3-(P-TOLYL)UREIDO)-N-((6AS,12S,15AS,17R,21S,23AS)-2,17,21-TRIMETHYL-6,11,15,20,23-PENTAOXOOCTADECAHYDRO-2H,6H,11H,15H-PYRAZINO[2,1-I]DIPYRROLO[2,1-C:2′,1′-L][1]OXA[4,7,10,13]TETRAAZACYCLOHEXADECIN-12-YL)PROPANAMIDE] ({NH(4-Me-phenyl)-CO}-[Phe(3-Me)]SP[Piperazine(2S-CO,4-Me)]A[Pro(4R-Me)]; ester 2-C) | 1580 ± 200 |  |  |  | 77.0 ± 6.1 | >50 |
| Cc1ccc(NC(=O)N[C@@H](Cc2cccc(C)c2)C(=O)N[C@@H]2C(=O)N3C[C@H](O)C[C@H]3C(=O)N3CCCC[C@H]3C(=O)N[C@@H](C)C(=O)N3C[C@H](C)C[C@H]3C(=O)O[C@H]2C)cc1 [Compound 26, (S)—N-((2R,6S,8AS,14AS,16R,20S,21S,23AS)-16-HYDROXY-2,6,21-TRIMETHYL-5,8,14,19,23-PENTAOXOOCTADECAHYDRO-1H,5H,14H,19H-PYRIDO[2,1-I]DIPYRROLO[2,1-C:2′,1′-L][1]OXA[4,7,10,13]TETRAAZACYCLOHEXADECIN-20-YL)-3-(M-TOLYL)-2-(3-(P-TOLYL)UREIDO)PROPANAMIDE] ({NH(4-Me-phenyl)-CO}-[Phe(3-Me)][aThr][Hyp][Pip]A[Pro(4R-Me)]; ester 2-C) | 650 ± 90 |  |  |  | 99.1 ± 0.15 | >50 |
| C[C@@H]1C[C@H]2C(=O)OC[C@H](NC(=O)[C@H](Cc3cccc(C(F)(F)F)c3)NC(=O)Nc3ccc(Cl)cc3F)C(=O)N3CCC[C@H]3C(=O)N3CCN(C)C[C@H]3C(=O)N[C@@H](C)C(=O)N2C1 [Compound 18, (S)-2-(3-(4-CHLORO-2-FLUOROPHENYL)UREIDO)-3-(3-(TRIFLUOROMETHYL)PHENYL)-N-((6AS,12S,15AS,17R,21S,23AS)-2,17,21-TRIMETHYL-6,11,15,20,23-PENTAOXOOCTADECAHYDRO-2H,6H,11H,15H-PYRAZINO[2,1-I]DIPYRROLO[2,1-C:2′,1′-L][1]OXA[4,7,10,13]TETRAAZACYCLOHEXADECIN-12-YL)PROPANAMIDE] ({NH(4-Cl-2-F-phenyl)-CO}-[Phe(3-CF3)]SP[Piperazine(2S-CO,4-Me)]A[Pro(4R-Me)]; ester 2-C) | 1750 ± 100 | 99.2 ± 0.1 | 46.62 |  |  |  |
